Experiments:
Details in all cases: compound 10.0 µM
CAMK2G (human) = CAMK2G (human) (UniProt Q13555)
AKT1 (human) = AKT1 (human) (UniProt P31749)
PRKD3 (human) = PRKD3 (human) (UniProt O94806)
MAP3K3 (human) = MAP3K3 (human) (UniProt Q99759)
NTRK2 (human) = NTRK2 (human) (UniProt Q16620)
AURKA (human) = AURKA (human) (UniProt O14965)
CDK6 CCND1 (human) = CDK6 CCND1 (human) (UniProt Q00534+P24385)
MAP4K4 (human) = MAP4K4 (human) (UniProt O95819)
CSNK2A2 (human) = CSNK2A2 (human) (UniProt P19784)
CLK4 (human) = CLK4 (human) (UniProt Q9HAZ1)
ERBB2 (human) = ERBB2 (human) (UniProt P04626)
PNCK (human) = PNCK (human) (UniProt Q6P2M8)
Chain of PNCK (human) (Q6P2M8 whole entry, looked up): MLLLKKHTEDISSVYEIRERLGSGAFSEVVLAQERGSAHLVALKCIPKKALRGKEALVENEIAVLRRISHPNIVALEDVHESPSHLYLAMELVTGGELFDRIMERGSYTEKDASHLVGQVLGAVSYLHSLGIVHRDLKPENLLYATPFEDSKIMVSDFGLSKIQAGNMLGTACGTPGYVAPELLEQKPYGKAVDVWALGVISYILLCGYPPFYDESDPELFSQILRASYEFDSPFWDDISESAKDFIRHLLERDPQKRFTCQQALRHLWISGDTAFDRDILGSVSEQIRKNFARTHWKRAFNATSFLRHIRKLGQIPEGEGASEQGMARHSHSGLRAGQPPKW

PRKX (human) = PRKX (human) (UniProt P51817)
ULK2 (human) = ULK2 (human) (UniProt Q8IYT8)
CAMK2A (human) = CAMK2A (human) (UniProt Q9UQM7)
HIPK4 (human) = HIPK4 (human) (UniProt Q8NE63)
JAK2 JH1 JH2 (human) = JAK2 JH1 JH2 (human) (UniProt O60674)
MST1R (human) = MST1R (human) (UniProt Q04912)
MAP2K6 (human) = MAP2K6 (human) (UniProt P52564)
FRK (human) = FRK (human) (UniProt P42685)
AKT2 (human) = AKT2 (human) (UniProt P31751)
RPS6KA1 KD1 KD2 (human) = RPS6KA1 KD1 KD2 (human) (UniProt Q15418)
ACVR1 (human) = ACVR1 (human) (UniProt Q04771)
CAMK1 (human) = CAMK1 (human) (UniProt Q14012)
PAK6 (human) = PAK6 (human) (UniProt Q9NQU5)
LYN (human) = LYN (human) (UniProt P07948)
ALK (human) = ALK (human) (UniProt Q9UM73)
MYLK (human) = MYLK (human) (UniProt Q15746)
PASK (human) = PASK (human) (UniProt Q96RG2)
RPS6KA3 KD1 KD2 (human) = RPS6KA3 KD1 KD2 (human) (UniProt P51812)
ADRBK2 (human) = ADRBK2 (human) (UniProt P35626)
Chain of ADRBK2 (human) (P35626 whole entry, looked up): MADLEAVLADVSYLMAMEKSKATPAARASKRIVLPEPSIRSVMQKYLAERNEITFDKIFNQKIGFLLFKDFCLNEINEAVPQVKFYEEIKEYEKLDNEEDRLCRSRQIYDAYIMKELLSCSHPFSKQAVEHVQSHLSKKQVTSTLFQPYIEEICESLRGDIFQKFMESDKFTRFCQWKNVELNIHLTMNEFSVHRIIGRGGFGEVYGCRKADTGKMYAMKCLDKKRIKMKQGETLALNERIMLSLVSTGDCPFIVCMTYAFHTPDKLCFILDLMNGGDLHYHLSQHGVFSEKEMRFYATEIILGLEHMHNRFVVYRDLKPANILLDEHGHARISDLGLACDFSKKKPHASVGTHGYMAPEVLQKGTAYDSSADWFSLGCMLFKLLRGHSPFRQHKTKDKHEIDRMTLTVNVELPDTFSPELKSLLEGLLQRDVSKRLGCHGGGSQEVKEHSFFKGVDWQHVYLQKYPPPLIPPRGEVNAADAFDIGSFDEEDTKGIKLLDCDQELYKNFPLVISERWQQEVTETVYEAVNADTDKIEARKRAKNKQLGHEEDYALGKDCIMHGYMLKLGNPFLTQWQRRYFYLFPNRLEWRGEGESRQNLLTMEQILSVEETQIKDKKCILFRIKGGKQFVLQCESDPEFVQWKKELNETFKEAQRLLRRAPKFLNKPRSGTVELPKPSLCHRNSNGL

PRKACA (human) = PRKACA (human) (UniProt P17612)
NUAK1 (human) = NUAK1 (human) (UniProt O60285)
SYK (human) = SYK (human) (UniProt P43405)
TYK2 JH1 JH2 (human) = TYK2 JH1 JH2 (human) (UniProt P29597)
Chain of TYK2 JH1 JH2 (human) (P29597 whole entry, looked up): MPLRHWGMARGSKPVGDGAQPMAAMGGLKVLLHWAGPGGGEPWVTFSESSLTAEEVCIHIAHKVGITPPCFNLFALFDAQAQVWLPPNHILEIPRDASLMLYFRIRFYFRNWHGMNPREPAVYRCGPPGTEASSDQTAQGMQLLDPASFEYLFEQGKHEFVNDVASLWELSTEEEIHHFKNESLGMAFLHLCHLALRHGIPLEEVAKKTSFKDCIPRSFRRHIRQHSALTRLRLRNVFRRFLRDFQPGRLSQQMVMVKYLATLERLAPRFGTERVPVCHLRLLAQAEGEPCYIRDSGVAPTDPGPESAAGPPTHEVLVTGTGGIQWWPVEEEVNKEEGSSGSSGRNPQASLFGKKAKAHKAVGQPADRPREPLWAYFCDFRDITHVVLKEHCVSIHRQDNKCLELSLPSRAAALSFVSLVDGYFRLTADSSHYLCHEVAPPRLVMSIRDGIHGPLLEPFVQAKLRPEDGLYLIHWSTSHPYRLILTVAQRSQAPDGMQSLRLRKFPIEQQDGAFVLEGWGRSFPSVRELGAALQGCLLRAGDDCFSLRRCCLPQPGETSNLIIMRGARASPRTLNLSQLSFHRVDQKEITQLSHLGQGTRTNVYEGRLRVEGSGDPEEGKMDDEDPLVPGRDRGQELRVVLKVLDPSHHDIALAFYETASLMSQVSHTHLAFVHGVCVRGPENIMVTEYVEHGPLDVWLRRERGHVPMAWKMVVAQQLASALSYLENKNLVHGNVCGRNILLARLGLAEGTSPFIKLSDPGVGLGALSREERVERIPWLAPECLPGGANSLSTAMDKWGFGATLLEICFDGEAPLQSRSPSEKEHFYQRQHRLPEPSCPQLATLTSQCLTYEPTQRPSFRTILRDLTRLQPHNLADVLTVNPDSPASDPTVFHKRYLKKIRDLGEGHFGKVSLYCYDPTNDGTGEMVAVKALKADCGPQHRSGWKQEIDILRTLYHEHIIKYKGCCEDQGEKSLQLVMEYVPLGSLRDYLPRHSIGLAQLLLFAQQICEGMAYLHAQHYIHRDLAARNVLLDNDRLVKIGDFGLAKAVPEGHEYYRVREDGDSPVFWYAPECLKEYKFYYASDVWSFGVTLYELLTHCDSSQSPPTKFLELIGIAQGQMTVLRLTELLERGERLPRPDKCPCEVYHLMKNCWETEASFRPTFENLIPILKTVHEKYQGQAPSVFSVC

DYRK3 (human) = DYRK3 (human) (UniProt O43781)
IGF1R (human) = IGF1R (human) (UniProt P08069)
CAMK1D (human) = CAMK1D (human) (UniProt Q8IU85)
Chain of CAMK1D (human) (Q8IU85 whole entry, looked up): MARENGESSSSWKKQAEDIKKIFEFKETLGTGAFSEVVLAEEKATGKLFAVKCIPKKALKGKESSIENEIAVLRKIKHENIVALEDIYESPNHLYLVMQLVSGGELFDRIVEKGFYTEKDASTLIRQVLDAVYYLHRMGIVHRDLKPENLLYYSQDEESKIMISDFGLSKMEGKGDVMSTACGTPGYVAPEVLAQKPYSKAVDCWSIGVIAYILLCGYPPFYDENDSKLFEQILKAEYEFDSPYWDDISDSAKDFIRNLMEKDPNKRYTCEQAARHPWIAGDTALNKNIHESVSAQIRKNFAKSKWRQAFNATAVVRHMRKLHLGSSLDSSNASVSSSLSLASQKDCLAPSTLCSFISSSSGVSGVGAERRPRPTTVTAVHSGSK

ROS1 (human) = ROS1 (human) (UniProt P08922)
BRSK2 (human) = BRSK2 (human) (UniProt Q8IWQ3)
PTK6 (human) = PTK6 (human) (UniProt Q13882)
Chain of PTK6 (human) (Q13882 whole entry, looked up): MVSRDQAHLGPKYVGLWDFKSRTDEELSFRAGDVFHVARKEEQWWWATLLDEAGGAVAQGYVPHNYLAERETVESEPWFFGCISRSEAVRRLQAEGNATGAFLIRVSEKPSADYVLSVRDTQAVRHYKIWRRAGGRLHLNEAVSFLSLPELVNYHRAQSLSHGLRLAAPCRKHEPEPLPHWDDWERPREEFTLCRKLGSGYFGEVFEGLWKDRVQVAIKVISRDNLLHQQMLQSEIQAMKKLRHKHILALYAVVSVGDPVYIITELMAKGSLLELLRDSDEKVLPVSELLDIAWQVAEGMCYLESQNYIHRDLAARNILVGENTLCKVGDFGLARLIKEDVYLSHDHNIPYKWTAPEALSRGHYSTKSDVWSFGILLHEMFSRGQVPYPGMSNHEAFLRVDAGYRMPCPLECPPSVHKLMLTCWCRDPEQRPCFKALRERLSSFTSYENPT

INSR (human) = INSR (human) (UniProt P06213)
Chain of INSR (human) (P06213 whole entry, looked up): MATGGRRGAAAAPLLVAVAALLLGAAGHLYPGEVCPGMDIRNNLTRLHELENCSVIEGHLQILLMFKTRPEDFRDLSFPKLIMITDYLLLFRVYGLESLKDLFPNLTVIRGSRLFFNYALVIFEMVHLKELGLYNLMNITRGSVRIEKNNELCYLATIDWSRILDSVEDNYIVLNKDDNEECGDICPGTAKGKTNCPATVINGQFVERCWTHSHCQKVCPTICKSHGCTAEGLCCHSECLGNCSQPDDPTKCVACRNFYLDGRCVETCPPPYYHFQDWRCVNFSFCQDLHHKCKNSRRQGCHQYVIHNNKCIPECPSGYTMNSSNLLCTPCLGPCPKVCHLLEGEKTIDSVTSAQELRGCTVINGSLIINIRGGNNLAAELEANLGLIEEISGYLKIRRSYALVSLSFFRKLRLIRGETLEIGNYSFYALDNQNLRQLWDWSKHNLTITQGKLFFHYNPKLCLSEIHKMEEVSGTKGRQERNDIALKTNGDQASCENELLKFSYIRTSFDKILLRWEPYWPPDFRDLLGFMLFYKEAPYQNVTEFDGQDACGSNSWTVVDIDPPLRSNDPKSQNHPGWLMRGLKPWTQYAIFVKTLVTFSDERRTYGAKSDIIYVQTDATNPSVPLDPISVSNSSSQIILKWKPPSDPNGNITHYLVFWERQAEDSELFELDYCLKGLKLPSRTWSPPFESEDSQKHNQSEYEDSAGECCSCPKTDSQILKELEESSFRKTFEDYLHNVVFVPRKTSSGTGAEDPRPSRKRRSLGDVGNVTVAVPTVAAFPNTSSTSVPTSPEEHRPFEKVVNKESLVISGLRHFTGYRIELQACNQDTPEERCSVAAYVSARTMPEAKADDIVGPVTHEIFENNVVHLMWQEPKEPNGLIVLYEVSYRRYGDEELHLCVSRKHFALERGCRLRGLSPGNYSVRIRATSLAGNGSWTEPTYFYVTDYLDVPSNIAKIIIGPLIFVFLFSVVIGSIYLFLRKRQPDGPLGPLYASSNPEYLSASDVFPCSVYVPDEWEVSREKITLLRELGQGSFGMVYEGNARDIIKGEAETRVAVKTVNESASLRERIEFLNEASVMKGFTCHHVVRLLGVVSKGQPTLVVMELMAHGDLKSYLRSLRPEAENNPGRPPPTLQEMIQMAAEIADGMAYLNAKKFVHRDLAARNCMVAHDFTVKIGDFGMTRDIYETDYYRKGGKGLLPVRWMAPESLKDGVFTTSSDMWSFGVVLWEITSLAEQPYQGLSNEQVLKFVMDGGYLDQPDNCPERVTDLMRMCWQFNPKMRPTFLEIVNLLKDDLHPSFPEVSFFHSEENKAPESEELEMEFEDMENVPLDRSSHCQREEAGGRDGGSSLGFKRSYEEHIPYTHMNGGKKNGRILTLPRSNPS

PHKG1 (human) = PHKG1 (human) (UniProt Q16816)
AXL (human) = AXL (human) (UniProt P30530)

Chain of MAP3K3 (human) (Q99759 whole entry, looked up): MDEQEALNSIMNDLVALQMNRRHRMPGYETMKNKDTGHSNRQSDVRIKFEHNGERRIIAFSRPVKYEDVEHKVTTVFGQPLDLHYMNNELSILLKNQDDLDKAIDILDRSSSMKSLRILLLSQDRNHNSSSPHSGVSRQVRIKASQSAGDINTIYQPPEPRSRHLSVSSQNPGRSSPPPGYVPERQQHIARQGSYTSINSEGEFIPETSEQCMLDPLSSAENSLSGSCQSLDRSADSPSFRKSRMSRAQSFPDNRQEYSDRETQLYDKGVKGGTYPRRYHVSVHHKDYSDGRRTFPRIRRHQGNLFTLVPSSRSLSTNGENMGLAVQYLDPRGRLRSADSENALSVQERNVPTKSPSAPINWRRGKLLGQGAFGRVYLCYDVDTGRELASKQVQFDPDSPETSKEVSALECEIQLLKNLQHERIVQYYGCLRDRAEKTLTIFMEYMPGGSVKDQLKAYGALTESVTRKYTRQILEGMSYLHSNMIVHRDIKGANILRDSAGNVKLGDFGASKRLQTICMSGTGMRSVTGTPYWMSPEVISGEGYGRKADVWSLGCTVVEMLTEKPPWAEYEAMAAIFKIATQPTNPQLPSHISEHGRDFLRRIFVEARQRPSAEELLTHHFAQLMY

residual activity (CAMK2G (human)): 99.5%
residual activity (AKT1 (human)): 91%
residual activity (PRKD3 (human)): 102%
residual activity (MAP3K3 (human)): 107%
residual activity (NTRK2 (human)): 99%
residual activity (AURKA (human)): 88%
residual activity (CDK6 CCND1 (human)): 106%
residual activity (MAP4K4 (human)): 102%
residual activity (CSNK2A2 (human)): 76.5%
residual activity (CLK4 (human)): 95.5%
residual activity (ERBB2 (human)): 100%
residual activity (PNCK (human)): 88%
residual activity (PRKX (human)): 80.5%
residual activity (ULK2 (human)): 99.5%
residual activity (CAMK2A (human)): 104%
residual activity (HIPK4 (human)): 88%
residual activity (JAK2 JH1 JH2 (human)): 91.5%
residual activity (MST1R (human)): 97%
residual activity (MAP2K6 (human)): 94.5%
residual activity (FRK (human)): 97%
residual activity (AKT2 (human)): 93.5%
residual activity (RPS6KA1 KD1 KD2 (human)): 76%
residual activity (ACVR1 (human)): 92.5%
residual activity (CAMK1 (human)): 54%
residual activity (PAK6 (human)): 102%
residual activity (LYN (human)): 104%
residual activity (ALK (human)): 91.5%
residual activity (MYLK (human)): 96%
residual activity (PASK (human)): 90.5%
residual activity (RPS6KA3 KD1 KD2 (human)): 90.5%
residual activity (ADRBK2 (human)): 105%
residual activity (PRKACA (human)): 102%
residual activity (NUAK1 (human)): 102%
residual activity (SYK (human)): 89%
residual activity (TYK2 JH1 JH2 (human)): 91.5%
residual activity (DYRK3 (human)): 96.5%
residual activity (IGF1R (human)): 96.5%
residual activity (CAMK1D (human)): 82%
residual activity (ROS1 (human)): 110%
residual activity (BRSK2 (human)): 103%
residual activity (PTK6 (human)): 93%
residual activity (INSR (human)): 95.5%
residual activity (PHKG1 (human)): 98%
residual activity (AXL (human)): 103%
Compound: CC[C@H](C)n1cc(C)c2c(C(=O)NCc3c(C)cc(C)[nH]c3=O)cc(-c3ccc(N4CCNCC4)nc3)cc21

Reference: the kinase profiling compilation of Christmann-Franck et al. (2016)
